Source: patent publication US7858613B2, “Substituted benzo-condensed cycloheptanone derivatives and their use for producing drugs” (Gruenenthal GmbH, priority 2005, dated 2010)

Tests used:
vanilloid receptor (VR1) = biological target: T1, vanilloid receptor (VR1) (Homo sapiens, UniProt Q8NER1); assay: Functional study on vanilloid receptor (VR1), FLIPR Ca2+ assay in VR1-transfected CHO K1 cells; assay type: cell-based; conditions: test substance 10 μM; CHO K1 cells transfected with VR1; suppression of Ca2+ current after 100 nM capsaicin; read-out: VR1 (human) (% inhibition compared to 10 μM CP)
T1 construct: expressed in transfected cells; host or cells: CHO K1 cells (ECACC)
T1 sequence (Q8NER1 whole entry): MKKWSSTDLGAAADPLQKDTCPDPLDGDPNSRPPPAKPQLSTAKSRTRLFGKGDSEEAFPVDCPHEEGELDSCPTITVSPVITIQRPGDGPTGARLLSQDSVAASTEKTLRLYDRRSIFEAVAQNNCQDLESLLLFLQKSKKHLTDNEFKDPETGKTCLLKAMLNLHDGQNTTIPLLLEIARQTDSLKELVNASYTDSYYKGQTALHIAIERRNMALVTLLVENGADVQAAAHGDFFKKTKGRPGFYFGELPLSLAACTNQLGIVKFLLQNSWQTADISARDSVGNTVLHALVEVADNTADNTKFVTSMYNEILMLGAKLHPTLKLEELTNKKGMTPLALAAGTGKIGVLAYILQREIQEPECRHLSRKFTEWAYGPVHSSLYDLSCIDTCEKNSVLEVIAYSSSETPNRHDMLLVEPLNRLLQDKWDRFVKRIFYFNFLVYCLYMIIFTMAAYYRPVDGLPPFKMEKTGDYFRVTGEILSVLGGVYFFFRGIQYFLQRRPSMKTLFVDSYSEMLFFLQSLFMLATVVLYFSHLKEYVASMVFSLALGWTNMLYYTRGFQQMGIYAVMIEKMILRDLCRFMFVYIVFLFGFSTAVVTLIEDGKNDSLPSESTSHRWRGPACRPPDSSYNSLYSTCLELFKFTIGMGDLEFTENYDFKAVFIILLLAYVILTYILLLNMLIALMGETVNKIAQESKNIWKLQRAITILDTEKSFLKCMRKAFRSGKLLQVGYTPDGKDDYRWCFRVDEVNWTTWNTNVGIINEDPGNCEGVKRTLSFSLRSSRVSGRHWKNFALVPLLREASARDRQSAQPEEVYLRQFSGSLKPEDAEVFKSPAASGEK
Description: II. Functional Studies on the Vanilloid Receptor (VR1)
The agonistic or antagonistic action of the substances to be tested on vanilloid receptor (VR1) can also be determined with the assay which follows. In this assay, the Ca^2+ current through the channel is quantified with the aid of a Ca^2+-sensitive dye (Fluo-4 type, Molecular Probes, Europe BV, Leiden, the Netherlands) in a fluorescent imaging plate reader (FLIPR, Molecular Devices, Sunnyvale, USA).
Chinese hamster ovary cells (CHO K1 cells, European Collection of Cell Cultures (ECACC) Great Britain) are transfected stably with the VR1 gene. For functional studies, these cells are plated out onto poly-D-lysine-coated black 96-well plates with a clear bottom (BD Biosciences, Heidelberg, Germany) in a density of 25 000 cells/well. The cells are incubated overnight at 37° C. and 5% CO2 in a culture medium (Ham's Nutrient Mixture F12, 10% by volume of FCS (fetal calf serum), 18 μg/ml of L-proline). The next day, the cells are incubated with Fluo-4 (Fluo-4 2 μM, Pluronic F127 0.01% by volume, Molecular Probes in HBSS (Hank's buffered saline solution), Gibco Invitrogen GmbH, Karlsruhe, Germany) at 37° C. for 30 minutes. Subsequently, the plates are washed 3 times with HBSS buffer and, after a further incubation of 15 minutes at room temperature, used for Ca^2+ measurement in FLIPR. The Ca^2+-dependent fluorescence is measured before and after addition of the substances to be studied (wavelength λex=488 nm, λem=540 nm). The quantification is effected by measuring the highest fluorescence intensity (FC, fluorescence counts) over the time.
The FLIPR protocol consists of 2 substance additions. First, the substances to be tested (10 μM) are pipetted onto the cells and the Ca^2+ current is compared with the control (capsaicin 10 μM) (% activation based on the Ca^2+ signal after addition of 10 μM capsaicin). After incubation for 5 minutes, 100 nM capsaicin is applied and the current of Ca^2+ is likewise determined.
Desensitizing agonists and antagonists led to a suppression of the Ca^2+ current. % inhibition is calculated compared to the maximum achievable inhibition with 10 μM capsazepine.

[1] = biological target: T2, vanilloid receptor 1 (VR1/TRPV1) (Rattus norvegicus, UniProt O35433); assay: Functional study on vanilloid receptor 1 (VR1/TRPV1), FLIPR Ca2+ assay in rat dorsal root ganglia cells; assay type: cell-based; conditions: test compound 10 μM, rat DRG cells; for inhibition at 10 µM: suppression of Ca2+ current after 100 nM capsaicin, read-out: VR1 (rat) (% inhibition compared to 10 μM CP)
T2 construct: The spinal column is removed from beheaded rats; from tissue; host or cells: primary cells from rat dorsal root ganglia
T2 sequence (O35433 whole entry): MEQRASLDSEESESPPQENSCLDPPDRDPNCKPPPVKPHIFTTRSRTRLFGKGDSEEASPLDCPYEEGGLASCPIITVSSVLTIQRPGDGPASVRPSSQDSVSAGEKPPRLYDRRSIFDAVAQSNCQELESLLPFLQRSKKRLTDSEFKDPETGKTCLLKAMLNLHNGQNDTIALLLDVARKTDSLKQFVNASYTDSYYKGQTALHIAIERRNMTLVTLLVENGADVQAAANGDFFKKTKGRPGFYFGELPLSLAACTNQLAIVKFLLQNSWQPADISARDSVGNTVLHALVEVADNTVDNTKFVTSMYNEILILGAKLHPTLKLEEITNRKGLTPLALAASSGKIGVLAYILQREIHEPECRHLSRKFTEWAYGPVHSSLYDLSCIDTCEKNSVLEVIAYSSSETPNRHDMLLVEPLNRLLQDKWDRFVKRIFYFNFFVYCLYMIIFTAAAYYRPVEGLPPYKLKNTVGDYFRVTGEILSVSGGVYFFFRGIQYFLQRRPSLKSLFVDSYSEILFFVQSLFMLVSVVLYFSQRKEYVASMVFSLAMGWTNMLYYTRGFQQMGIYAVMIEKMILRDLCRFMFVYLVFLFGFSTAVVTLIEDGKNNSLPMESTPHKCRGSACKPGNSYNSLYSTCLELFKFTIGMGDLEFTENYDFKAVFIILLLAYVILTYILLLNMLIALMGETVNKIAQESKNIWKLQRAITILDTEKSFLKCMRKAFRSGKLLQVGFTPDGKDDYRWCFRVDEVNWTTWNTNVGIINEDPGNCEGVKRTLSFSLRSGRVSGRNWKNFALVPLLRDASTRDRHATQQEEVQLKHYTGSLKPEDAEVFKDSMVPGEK
Description: Preference may likewise be given to inventive compounds which, in the FLIPR assay, in a concentration of 10 μM, have an inhibition of the Ca^2+ ion current in dorsal root ganglia of rats of at least 10%, preferably of at least 30%, more preferably of at least 50%, even more preferably of at least 70%, even more preferably of at least 90%, compared to the maximum achievable inhibition of the Ca^2+ ion current with […] in a concentration of 10 μM.
In the FLIPR assay, the Ca^2+ current is quantified with the aid of a Ca^2+-sensitive dye (Fluo-4 type, Molecular Probes Europe BV, Leiden, the Netherlands) in the fluorescent imaging plate reader (FLIPR, Molecular Devices, Sunnyvale, USA), as described below.
I. Functional Study on the Vanilloid Receptor 1 (VR1/TRPV1 Receptor)
The agonistic or antagonistic action of the substances to be studied on the vanilloid receptor 1 (VR1/TRPV1) of the rat species can be determined with the following assay. In this assay, the Ca^2+ current through the receptor channel is quantified with the aid of a Ca^2+-sensitive dye (Fluo-4 type, Molecular Probes Europe BV, Leiden the Netherlands) in a fluorescent imaging plate reader (FLIPR, Molecular Devices, Sunnyvale, USA).
Cell culture plate: poly-D-lysine-coated, black 96-hole plates with a clear bottom (96 well black/clear plate, BD Biosciences, Heidelberg, Germany) are additionally coated with laminin (Gibco Invitrogen GmbH, Karlsruhe, Germany) by diluting laminin to a concentration of 100 μg/ml with PBS (Ca—Mg-free PBS, Gibco Invitrogen GmbH, Karlsruhe, Germany). Aliquots having a concentration of 100 μg/ml of laminin are withdrawn and stored at −20° C. The aliquots are diluted with PBS in a ratio of 1:10 to 10 μg/ml of laminin and in each case 50 μl of the solution are pipetted into a well of the cell culture plate. The cell culture plates are incubated at 37° C. for at least two hours, the supernatant solution is removed by suction and the wells are each washed twice with PBS. The coated cell culture plates are stored with supernatant PBS which is not removed until directly before the application of the cells.
The spinal column is removed from beheaded rats and placed directly into cold HBSS buffer (Hank's buffered saline solution, Gibco Invitrogen GmbH, Karlsruhe, Germany), i.e. placed in an ice bath, which has been admixed with 1% by volume of an AA solution (antibiotic/antimycotic solution, PAA, Pasching, Austria). The spinal column is severed longitudinally and removed from the spinal canal together with fasciae. Subsequently, the dorsal root ganglia (DRGs) are removed and in turn stored in cold HBSS buffer admixed with 1% by volume of an AA solution. The DRGs freed completely of blood residues and spinal nerves are in each case transferred to 500 μl of cold type 2 collagenase (PAA, Pasching, Austria) and incubated at 37° C. for 35 minutes. After addition of 2.5% by volume of trypsin (PAA, Pasching, Austria), incubation is continued at 37° C. for a further 10 minutes. After complete incubation, the enzyme solution is cautiously pipetted off and the remaining DRGs are each admixed with 500 μl of complete medium.
The DRGs are each suspended repeatedly, drawn through cannulas No. 1, No. 12 and No. 16 by means of a syringe and transferred to 50 ml Falcon tubes which are made up to 15 ml with complete medium. The contents of each Falcon tube are in each case filtered through a 70 μm Falcon filter insert and centrifuged at 1200 revolutions and room temperature for 10 minutes. The resulting pellet is in each case taken up in 250 μl of complete medium and the cell count is determined.
The number of cells in the suspension is adjusted to 3 times 10^5 per ml and in each case 150 μl of this suspension are added to one well of the cell culture plates coated as described above. In the incubator, the plates are left to stand at 37° C., 5% by volume of CO2 and 95% relative air humidity for two to three days. […]

human CB2 receptor = biological target: T3, human CB2 receptor (Homo sapiens, UniProt P34972); assay: Affinity for cannabinoid receptor CB2, [3H]-CP 55,940 displacement on HEK-293EBNA membranes; conditions: 10 μM test substance; 0.33 nM [3H]-CP 55,940; percent inhibition of specific binding
T3 construct: expressed in transfected cells; host or cells: HEK-293EBNA cells (membranes)
T3 sequence (P34972 whole entry): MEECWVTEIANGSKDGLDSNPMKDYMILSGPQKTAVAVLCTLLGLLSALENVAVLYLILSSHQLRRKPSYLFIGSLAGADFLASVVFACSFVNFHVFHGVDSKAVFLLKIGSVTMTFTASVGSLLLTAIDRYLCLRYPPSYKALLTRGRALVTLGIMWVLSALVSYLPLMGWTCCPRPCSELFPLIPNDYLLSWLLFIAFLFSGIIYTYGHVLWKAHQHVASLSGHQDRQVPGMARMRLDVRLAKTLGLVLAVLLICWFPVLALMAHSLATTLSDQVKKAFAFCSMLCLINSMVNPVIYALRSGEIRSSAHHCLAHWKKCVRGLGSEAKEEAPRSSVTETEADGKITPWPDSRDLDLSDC
Description: VI. Determination of the Affinity for the Cannabinoid Receptor CB2 (CB2 Receptor):
To determine the affinity of the inventive compounds for the cannabinoid receptor, membranes from human recombinant HEK-293EBNA cells were used, which had been transfected stably with the human CB2 receptor. The radioligand used was tritium-labeled 5-(1,1-dimethylheptyl)-2-(5-hydroxypropyl)cyclohexyl)-1-alpha,2-beta,5-alpha)phenol ([3]H—CP 55,940 with 103.4 Ci/mmol, 1 mCi/ml). The determination was effected in a test buffer composed of 50 mM Tris-HCl, 2.5 mM EDTA, 5 mM MgCl2 and 1.0 mg/ml of fatty acid-free BSA. The test substances were each dissolved in DMSO.
The affinity of the inventive compounds for the CB2 receptor is determined by their ability to displace [3]H—CP 55,940 from CB2 receptors in membranes from HEK-293EBNA cells. To this end, in each case 8 μg of the membranes (20 μl of a solution from membranes in a concentration of 400 μg/ml) are incubated in wells on a microtiter plate with a 0.33 nM solution of ^[3]H-CP […] (120 Ci/mmol) in a total volume of test buffer of 200 μl at 30° C. for 90 minutes.
Subsequently, either the test substances or WIN 55212-2 to determine the unspecific binding, in each case dissolved in DMSO, are added to the wells so as to result in each case in a concentration of the corresponding substances of 10 μM.
Incubation at 30° C. is continued for a further 40 minutes. The binding reaction was ended by rapid filtration through GF/C filter paper which had been treated with 0.05% PEI using a Brandel cell harvester with 96 wells. The filters are washed nine times with 0.5 ml of ice-cooled washing buffer ([…] Tris-HCl, 5 mM MgCl2, 2.5 mM EDTA, 2% BSA, pH 7.4), air-dried and placed in scintillation fluid, and the radioactivity is determined with the aid of a scintillation counter.
The percentage displacement of the radioactive ligand ^[3]H-CP 55,940 from its binding to the CB2 receptor is reported as percent inhibition of the specific binding.

Row | SMILES | inhibition at 10 µM (vanilloid receptor (VR1)) [%] | inhibition at 10 µM [1] [%] | inhibition at 10 µM (human CB2 receptor) [%] | VR1 (rat) (% stimulation compared to 10 μM CP) ([1]; Ca2+ signal relative to 10 μM capsaicin (CP)) [%]
1 | O=C1c2ccccc2SCCC1(CO)COC(=S)Nc1cccc(C(F)(F)F)c1 (stereo not drawn) [Example Compound 17, (3-Trifluoromethylphenyl)thiocarbamic acid O-(4-hydroxymethyl-5-oxo-2,3,4,5-tetrahydrobenzo[b]thiepin-4-ylmethyl)ester] | 17.1 | 46.6 | 3.8 | –
2 | O=C(NC(=O)c1ccccc1)OCC1(COC(=O)NC(=O)c2ccccc2)CCOc2ccccc2C1=O [Example Compound 19, Benzoylcarbamic acid 4-benzoylcarbamoyloxymethyl-5-oxo-2,3,4,5-tetrahydro-benzo[b]oxepin-4-ylmethyl ester] | 13.3 | 32.2 | 40.3 | –
3 | O=C1c2ccccc2OCCC1(CO)COC(=S)Nc1cccc(C(F)(F)F)c1 (stereo not drawn) [Example Compound 18, (3-Trifluoromethylphenyl)thiocarbamic acid O-(4-hydroxymethyl-5-oxo-2,3,4,5-tetrahydrobenzo[b]oxepin-4-ylmethyl)ester] | 31.5 | 52.1 | 15.6 | –
4 | O=C(Nc1ccc(F)cc1F)OCC1(COC(=O)Nc2ccc(F)cc2F)CCOc2ccccc2C1=O [Example Compound 16, 2,4-Difluorophenylcarbamic acid 4-(2,4-difluorophenylcarbamoyloxymethyl)-5-oxo-2,3,4,5-tetrahydrobenzo[b]oxepin-4-ylmethyl ester] | – | – | 63.4 | –
5 | O=C1c2ccccc2CCCC1(CO)COC(=S)Nc1cccc(C(F)(F)F)c1 (stereo not drawn) [Example Compound 22, (3-Trifluoromethylphenyl)thiocarbamic acid O-(6-hydroxymethyl-5-oxo-6,7,8,9-tetrahydro-5H-benzocyclohepten-6-ylmethyl)ester] | 67.5 | 59.7 | – | 77.9
6 | O=C(Nc1ccc(F)cc1F)OCC1(CO)CCSc2ccccc2C1=O (stereo not drawn) [Example Compound 20, (2,4-Difluorophenyl)carbamic acid 4-hydroxymethyl-5-oxo-2,3,4,5-tetrahydro-benzo[b]thiepin-4-ylmethyl ester] | 21.8 | 17.1 | 41 | –
7 | O=C1c2ccccc2SCCC1(CO)COC(=S)Nc1ccccc1 (stereo not drawn) [Example Compound 9, Phenylthiocarbamic acid O-(4-hydroxymethyl-5-oxo-2,3,4,5-tetrahydro-benzo[b]thiepin-4-ylmethyl)ester] | 51.3 | 52.8 | 28.3 | –
8 | O=C(Nc1ccc(Br)cc1)OCC1CCSc2ccccc2C1=O (stereo not drawn) [Example Compound 5, (4-Bromophenyl)carbamic acid 5-oxo-2,3,4,5-tetrahydrobenzo[b]thiepin-4-ylmethyl ester] | 53.8 | – | 36.2 | –
9 | CCCCCNC(=O)OCC1CCSc2ccccc2C1=O (stereo not drawn) [Example Compound 1, Pentylcarbamic acid 5-oxo-2,3,4,5-tetrahydrobenzo[b]thiepin-4-ylmethyl ester] | – | – | 42.2 | –
10 | CCCCCNC(=O)OCC1(COC(=O)NCCCCC)CCSc2ccccc2C1=O [Example Compound 14, pentylcarbamic acid 4-(pentylcarbamoyloxymethyl)-5-oxo-2,3,4,5-tetrahydrobenzo[b]thiepin-4-ylmethyl ester] | – | – | 61.8 | –
11 | O=C(NC1CCCCC1)OCC1(CO)CCSc2ccccc2C1=O (stereo not drawn) [Example Compound 6, Cyclohexylcarbamic acid 4-hydroxymethyl-5-oxo-2,3,4,5-tetrahydro-benzo[b]thiepin-4-ylmethyl ester] | 26.7 | – | 53.6 | –
12 | O=C1c2ccccc2SCCC1(CO)COC(=S)Nc1ccc(F)cc1F (stereo not drawn) [Example Compound 21, (2,4-Difluorophenyl)thiocarbamic acid O-(4-hydroxymethyl-5-oxo-2,3,4,5-tetrahydrobenzo[b]thiepin-4-ylmethyl)ester] | 36.3 | 34.6 | – | –
